From PubChem BioAssay (NCI)
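Five compound concentrations were applied to cells in 96-well plates for 48 hours; endpoints were derived by simple linear interpolation of the resulting dose-response curve. TGI: total growth inhibition.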

The compounds below were run on COLO 205 colon (assay: NCI-60 cell line screen, 48 h).

SMILES | TGI [µM]
COc1cc2c(cc1OC)C(=O)/C(=C/c1ccc(Cl)cc1)CC2 | > 10
NC(=O)c1cc2ccc(O)cc2oc1=Nc1ccccc1 | 44
Cc1cc2c(cc1Cl)S(=O)(=O)OC(c1ccc([N+](=O)[O-])cc1)=N2 | > 100

These compounds were tested on LOX IMVI melanoma (assay: NCI-60 cell line screen, 48 h).

SMILES | TGI [µM]
COc1cc2c(cc1OC)C(=O)/C(=C/c1ccc(Cl)cc1)CC2 | > 10
NC(=O)c1cc2ccc(O)cc2oc1=Nc1ccccc1 | > 100
Cc1cc2c(cc1Cl)S(=O)(=O)OC(c1ccc([N+](=O)[O-])cc1)=N2 | > 100

Each compound was assayed on MCF7 breast (assay: NCI-60 cell line screen, 48 h).

SMILES | TGI [µM]
COc1cc2c(cc1OC)C(=O)/C(=C/c1ccc(Cl)cc1)CC2 | > 10
NC(=O)c1cc2ccc(O)cc2oc1=Nc1ccccc1 | > 100
Cc1cc2c(cc1Cl)S(=O)(=O)OC(c1ccc([N+](=O)[O-])cc1)=N2 | > 100

These compounds were tested on SK-OV-3 ovarian (assay: NCI-60 cell line screen, 48 h).

SMILES | TGI [µM]
COc1cc2c(cc1OC)C(=O)/C(=C/c1ccc(Cl)cc1)CC2 | > 10
NC(=O)c1cc2ccc(O)cc2oc1=Nc1ccccc1 | > 100
Cc1cc2c(cc1Cl)S(=O)(=O)OC(c1ccc([N+](=O)[O-])cc1)=N2 | > 100

Each compound was assayed on ACHN renal (assay: NCI-60 cell line screen, 48 h).

SMILES | TGI [µM]
COc1cc2c(cc1OC)C(=O)/C(=C/c1ccc(Cl)cc1)CC2 | > 10
NC(=O)c1cc2ccc(O)cc2oc1=Nc1ccccc1 | > 100
Cc1cc2c(cc1Cl)S(=O)(=O)OC(c1ccc([N+](=O)[O-])cc1)=N2 | > 100

These compounds were tested on SN12C renal (assay: NCI-60 cell line screen, 48 h).

SMILES | TGI [µM]
COc1cc2c(cc1OC)C(=O)/C(=C/c1ccc(Cl)cc1)CC2 | > 10
NC(=O)c1cc2ccc(O)cc2oc1=Nc1ccccc1 | 66
Cc1cc2c(cc1Cl)S(=O)(=O)OC(c1ccc([N+](=O)[O-])cc1)=N2 | > 100

These compounds were tested on A498 renal (assay: NCI-60 cell line screen, 48 h).

SMILES | TGI [µM]
COc1cc2c(cc1OC)C(=O)/C(=C/c1ccc(Cl)cc1)CC2 | > 10
NC(=O)c1cc2ccc(O)cc2oc1=Nc1ccccc1 | 68.1
Cc1cc2c(cc1Cl)S(=O)(=O)OC(c1ccc([N+](=O)[O-])cc1)=N2 | > 100

What follows are compounds tested on SR leukemia (assay: NCI-60 cell line screen, 48 h).

SMILES | TGI [µM]
COc1cc2c(cc1OC)C(=O)/C(=C/c1ccc(Cl)cc1)CC2 | > 10
NC(=O)c1cc2ccc(O)cc2oc1=Nc1ccccc1 | 53.9
Cc1cc2c(cc1Cl)S(=O)(=O)OC(c1ccc([N+](=O)[O-])cc1)=N2 | > 100

What follows are compounds tested on CCRF-CEM leukemia (assay: NCI-60 cell line screen, 48 h).

SMILES | TGI [µM]
COc1cc2c(cc1OC)C(=O)/C(=C/c1ccc(Cl)cc1)CC2 | > 10
NC(=O)c1cc2ccc(O)cc2oc1=Nc1ccccc1 | > 100
Cc1cc2c(cc1Cl)S(=O)(=O)OC(c1ccc([N+](=O)[O-])cc1)=N2 | > 100

Each compound was assayed on NCI-H226 lung (assay: NCI-60 cell line screen, 48 h).

SMILES | TGI [µM]
COc1cc2c(cc1OC)C(=O)/C(=C/c1ccc(Cl)cc1)CC2 | > 10
NC(=O)c1cc2ccc(O)cc2oc1=Nc1ccccc1 | 88.6
Cc1cc2c(cc1Cl)S(=O)(=O)OC(c1ccc([N+](=O)[O-])cc1)=N2 | > 100

The compounds below were run on UO-31 renal (assay: NCI-60 cell line screen, 48 h).

SMILES | TGI [µM]
COc1cc2c(cc1OC)C(=O)/C(=C/c1ccc(Cl)cc1)CC2 | > 10
NC(=O)c1cc2ccc(O)cc2oc1=Nc1ccccc1 | > 100
Cc1cc2c(cc1Cl)S(=O)(=O)OC(c1ccc([N+](=O)[O-])cc1)=N2 | > 100

These compounds were tested on SF-268 CNS (assay: NCI-60 cell line screen, 48 h).

SMILES | TGI [µM]
COc1cc2c(cc1OC)C(=O)/C(=C/c1ccc(Cl)cc1)CC2 | > 10
NC(=O)c1cc2ccc(O)cc2oc1=Nc1ccccc1 | > 100
Cc1cc2c(cc1Cl)S(=O)(=O)OC(c1ccc([N+](=O)[O-])cc1)=N2 | > 100

Each compound was assayed on NCI/ADR-RES ovarian (assay: NCI-60 cell line screen, 48 h).

SMILES | TGI [µM]
COc1cc2c(cc1OC)C(=O)/C(=C/c1ccc(Cl)cc1)CC2 | > 10
NC(=O)c1cc2ccc(O)cc2oc1=Nc1ccccc1 | > 100
Cc1cc2c(cc1Cl)S(=O)(=O)OC(c1ccc([N+](=O)[O-])cc1)=N2 | > 100

The compounds below were run on U251 CNS (assay: NCI-60 cell line screen, 48 h).

SMILES | TGI [µM]
COc1cc2c(cc1OC)C(=O)/C(=C/c1ccc(Cl)cc1)CC2 | > 10
NC(=O)c1cc2ccc(O)cc2oc1=Nc1ccccc1 | > 100
Cc1cc2c(cc1Cl)S(=O)(=O)OC(c1ccc([N+](=O)[O-])cc1)=N2 | > 100

Each compound was assayed on MALME-3M melanoma (assay: NCI-60 cell line screen, 48 h).

SMILES | TGI [µM]
COc1cc2c(cc1OC)C(=O)/C(=C/c1ccc(Cl)cc1)CC2 | > 10
NC(=O)c1cc2ccc(O)cc2oc1=Nc1ccccc1 | > 100
Cc1cc2c(cc1Cl)S(=O)(=O)OC(c1ccc([N+](=O)[O-])cc1)=N2 | > 100
